# Test results taken from ChEMBL document CHEMBL1201862, “PubChem BioAssay data set” (2004).
# Calls of active or inactive are those of the source.
# Tests used:
# [1] = target: Cytochrome P450 2C9 (Homo sapiens, UniProt P11712)
# [2] = target: T1, Short transient receptor potential channel 4 (Mus musculus, UniProt Q9QUQ5); assay: block of DAMGO-driven TRPC4 calcium entry – cell-based, HEK293 TRPC4/mu-opioid, Fluo-4 calcium, dose response (AID 434942); assay type: functional;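 note: potency of inhibitors blocking the TRPC4 calcium response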
# T1 sequence (Q9QUQ5 whole entry): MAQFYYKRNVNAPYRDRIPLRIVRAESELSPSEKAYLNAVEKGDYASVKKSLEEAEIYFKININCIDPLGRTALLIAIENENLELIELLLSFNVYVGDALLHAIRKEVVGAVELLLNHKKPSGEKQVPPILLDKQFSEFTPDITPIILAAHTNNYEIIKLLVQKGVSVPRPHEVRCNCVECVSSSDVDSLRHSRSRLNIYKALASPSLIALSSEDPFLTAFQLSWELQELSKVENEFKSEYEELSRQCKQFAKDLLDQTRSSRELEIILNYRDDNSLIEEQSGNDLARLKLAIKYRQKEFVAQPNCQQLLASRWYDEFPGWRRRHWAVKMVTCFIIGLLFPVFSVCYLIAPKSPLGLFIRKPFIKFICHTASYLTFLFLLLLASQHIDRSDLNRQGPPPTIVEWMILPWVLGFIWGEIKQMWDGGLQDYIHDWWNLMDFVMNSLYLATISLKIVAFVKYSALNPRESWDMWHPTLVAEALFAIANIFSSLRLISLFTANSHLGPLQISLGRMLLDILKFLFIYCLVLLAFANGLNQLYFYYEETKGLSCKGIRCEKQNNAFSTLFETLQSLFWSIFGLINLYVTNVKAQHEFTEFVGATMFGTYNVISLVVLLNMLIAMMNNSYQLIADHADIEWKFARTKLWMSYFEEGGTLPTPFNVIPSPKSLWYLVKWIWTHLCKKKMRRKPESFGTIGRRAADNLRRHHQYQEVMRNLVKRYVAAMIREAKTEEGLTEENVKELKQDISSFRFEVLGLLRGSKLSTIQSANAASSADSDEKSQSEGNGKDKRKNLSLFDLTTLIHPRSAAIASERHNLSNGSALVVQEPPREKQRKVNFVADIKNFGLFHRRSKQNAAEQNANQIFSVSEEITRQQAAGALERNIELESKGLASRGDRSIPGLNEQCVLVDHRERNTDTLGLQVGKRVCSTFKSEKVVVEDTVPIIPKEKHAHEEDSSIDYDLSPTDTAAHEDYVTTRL
# [3] = target: T2, DNA repair and recombination protein RAD54-like (Homo sapiens, UniProt Q92698); assay: RAD54 Holliday junction migration blockers – biochemical, fluorescence, cherry-picked samples, dose series, confirmation (AID 651657); assay type: functional
# T2 sequence (Q92698 whole entry): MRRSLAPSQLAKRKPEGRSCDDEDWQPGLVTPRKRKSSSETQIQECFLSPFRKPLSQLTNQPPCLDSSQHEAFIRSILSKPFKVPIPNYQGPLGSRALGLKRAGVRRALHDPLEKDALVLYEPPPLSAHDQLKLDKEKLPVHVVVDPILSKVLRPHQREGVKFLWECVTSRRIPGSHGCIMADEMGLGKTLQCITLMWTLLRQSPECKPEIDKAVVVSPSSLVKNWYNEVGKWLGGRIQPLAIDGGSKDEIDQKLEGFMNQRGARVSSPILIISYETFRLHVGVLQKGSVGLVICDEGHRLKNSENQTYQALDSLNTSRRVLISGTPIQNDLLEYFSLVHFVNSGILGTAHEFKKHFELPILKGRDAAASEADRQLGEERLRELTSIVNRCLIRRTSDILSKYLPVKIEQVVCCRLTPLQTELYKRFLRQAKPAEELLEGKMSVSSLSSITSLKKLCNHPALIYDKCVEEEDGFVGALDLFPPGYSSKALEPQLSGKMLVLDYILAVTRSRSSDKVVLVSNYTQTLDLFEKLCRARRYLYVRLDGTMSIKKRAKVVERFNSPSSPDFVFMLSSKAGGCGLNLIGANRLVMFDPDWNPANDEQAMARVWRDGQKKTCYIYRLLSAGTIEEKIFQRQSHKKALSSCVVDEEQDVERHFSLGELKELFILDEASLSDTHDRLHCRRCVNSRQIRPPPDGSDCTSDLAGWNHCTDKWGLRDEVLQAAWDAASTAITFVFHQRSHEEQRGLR
# [4] = Luminescence Cell-Based Dose Retest to Confirm Inhibitors of Cancer Stem Cells. [Related pubchem assays (depositor defined):AID2717, AID2721]; assay type: functional; conditions: Homo sapiens
# [5] = target: Cytochrome P450 2D6 (Homo sapiens, UniProt P10635);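 note: CYP2D6 member of a cytochrome P450 panel assay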
# [6] = alpha-synuclein stem-loop luciferase translation blockers – H4 neuroglioma cells, luminescence, confirmation (AID 1988); assay type: functional, cell-based
# [7] = Luminescence Cell-Based Dose Response HTS to Identify Inhibitors of 5'UTR Stem-Loop Driven Prion Protein mRNA Translation in H4 Neuroglioblastoma Cells. [Related pubchem assays: 1827 (Project Summary), 1813 (Primary HTS)]; assay type: functional
# [8] = test system: HEK293; assay: EBV LMP1 TES2 canonical NF-kB signalling blockers – cell-based, HEK293, luciferase, cherry-pick, dose response (AID 588343); assay type: functional; conditions: Homo sapiens
# [9] = luciferase reporter signal suppression in cells – H4 neuroglioma cells, luminescence, dose response (AID 1990); assay type: functional, cell-based
# [10] = test system: H9c2; assay: cells; assay type: functional, cell-based; conditions: Rattus norvegicus, H9c2, Myocardium;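 note: confirmatory concentration-response retest of ultra-high-throughput screening hits for modulation of myocardial damage; cell death induced by hydrogen peroxide oxidative stress; compound pretreatment for 60 min then peroxide exposure for 2 h; potency is for protecting the cells against peroxide damage rather than for killing them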
# [11] = test system: BJ; assay: BJ-TERT fibroblast viability loss – cell-based, RAS-independent, luminescence, dose response (AID 1933); assay type: functional; conditions: Homo sapiens
# [12] = DRD fibroblast viability loss – cell-based, non-viral oncogenic, luminescence, dose response (AID 1934); assay type: functional; conditions: Homo sapiens
# [13] = test system: BJ; assay: cells; assay type: functional, cell-based; conditions: Homo sapiens
# [14] = test system: BJ; assay: BJ-TERT-LT-ST fibroblast viability loss – cell-based, RAS-independent, luminescence, dose response (AID 1935); assay type: functional; conditions: Homo sapiens;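 note: BJ fibroblasts immortalized with TERT plus LT and ST oncogenes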
# [15] = test system: HEK293; assay: cells; assay type: functional, cell-based; conditions: Homo sapiens
# [16] = test system: HEK293; assay: NOD2 signaling inhibitors in MDP-stimulated cells, cell-based, uHTS, luminescence (AID 2001); assay type: functional; conditions: Homo sapiens
# [17] = test system: HEK293; assay: cells; assay type: functional, cell-based; conditions: Homo sapiens; remark: listed apart in the source
# [18] = test system: HEK293; assay: inhibition of NOD1-driven NF-kB reporter – cell-based, luminescence, uHTS, primary screen (AID 1578); assay type: functional; conditions: Homo sapiens
# [19] = target: T1, Short transient receptor potential channel 4; assay: calcium entry via TRPC4 opening agents – cell-based, HEK293 TRPC4/mu-opioid, Fluo-4 calcium, dose response (AID 434937); assay type: functional
# [20] = target: T3, Heat shock factor protein 1 (Mus musculus, UniProt P38532); assay: enhancement of HSF1-driven luciferase signal – cell-based, NIH3T3, luminescence, dose retest, confirmation (AID 435004); assay type: functional;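 note: stress induced by proteasome inhibitor MG132 added 30 min after compound; luciferase reporter driven by HSF1 response element in NIH3T3 cells; actives raise luminescence as potentiators of the MG132 stress response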
# T3 sequence (P38532 whole entry): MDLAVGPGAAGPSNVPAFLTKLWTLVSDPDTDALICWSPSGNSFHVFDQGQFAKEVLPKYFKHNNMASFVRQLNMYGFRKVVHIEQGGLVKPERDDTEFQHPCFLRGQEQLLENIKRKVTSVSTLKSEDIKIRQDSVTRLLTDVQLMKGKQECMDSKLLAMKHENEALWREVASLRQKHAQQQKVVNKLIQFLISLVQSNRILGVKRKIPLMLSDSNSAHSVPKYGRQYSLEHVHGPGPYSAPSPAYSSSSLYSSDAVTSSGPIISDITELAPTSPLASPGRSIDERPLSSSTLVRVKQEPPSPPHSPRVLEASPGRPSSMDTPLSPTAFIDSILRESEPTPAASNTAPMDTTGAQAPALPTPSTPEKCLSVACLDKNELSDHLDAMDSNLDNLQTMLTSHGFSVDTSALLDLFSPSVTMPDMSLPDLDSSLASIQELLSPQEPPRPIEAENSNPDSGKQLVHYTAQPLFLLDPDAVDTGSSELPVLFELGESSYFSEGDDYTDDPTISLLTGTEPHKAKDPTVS
# [21] = target: Glyceraldehyde-3-phosphate dehydrogenase (Homo sapiens, UniProt P04406)
# [22] = target: Luciferin 4-monooxygenase (Photinus pyralis, UniProt P08659); assay: inhibition of purified Photinus pyralis luciferase – biochemical, luminescence, dose response (AID 1891)
# [23] = Luminescence Cell-Based Dose Confirmation HTS to Identify Inhibitors of Platelet Dense Granule Release. [Related pubchem assays: 1663 (Primary HTS), 1678 (Summary of Project)]; assay type: functional
# [24] = HIV-1 AD8 envelope cell-cell fusion blockers – cherry-pick, dose response (AID 652062); assay type: functional, cell-based;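 note: luciferase signal from cell-cell fusion driven by HIV-1 clade B AD8 Env; potency is for inhibitors of fusion seen as a drop in luminescence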
# [25] = blockers of HIV-1 envelope-mediated cell-cell fusion – cherry-pick, dose response (AID 652057); assay type: functional, cell-based
# [26] = target: Cytochrome P450 2C19 (Homo sapiens, UniProt P33261); assay: Cytochrome panel assay with activity outcomes. Panel member name: p450-cyp2c19 Compounds with AC50 equal or less than 10 uM are considered active; assay type: functional; conditions: read-out: AC50
# Chain of Cytochrome P450 2C19 (P33261 whole entry): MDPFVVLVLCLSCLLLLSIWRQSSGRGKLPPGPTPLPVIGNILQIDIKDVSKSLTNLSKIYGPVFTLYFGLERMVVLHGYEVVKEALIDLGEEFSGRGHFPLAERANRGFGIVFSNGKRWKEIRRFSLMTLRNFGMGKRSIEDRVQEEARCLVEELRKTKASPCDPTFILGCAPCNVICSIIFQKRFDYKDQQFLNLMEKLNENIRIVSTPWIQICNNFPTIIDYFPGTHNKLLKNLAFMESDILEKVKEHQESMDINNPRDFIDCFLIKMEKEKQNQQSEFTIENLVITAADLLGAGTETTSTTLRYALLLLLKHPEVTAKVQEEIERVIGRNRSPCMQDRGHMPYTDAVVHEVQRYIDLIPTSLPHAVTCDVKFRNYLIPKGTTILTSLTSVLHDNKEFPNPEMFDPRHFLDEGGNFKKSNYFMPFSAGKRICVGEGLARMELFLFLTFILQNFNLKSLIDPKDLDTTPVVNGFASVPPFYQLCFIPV
# Chain of Cytochrome P450 2C9 (P11712 whole entry): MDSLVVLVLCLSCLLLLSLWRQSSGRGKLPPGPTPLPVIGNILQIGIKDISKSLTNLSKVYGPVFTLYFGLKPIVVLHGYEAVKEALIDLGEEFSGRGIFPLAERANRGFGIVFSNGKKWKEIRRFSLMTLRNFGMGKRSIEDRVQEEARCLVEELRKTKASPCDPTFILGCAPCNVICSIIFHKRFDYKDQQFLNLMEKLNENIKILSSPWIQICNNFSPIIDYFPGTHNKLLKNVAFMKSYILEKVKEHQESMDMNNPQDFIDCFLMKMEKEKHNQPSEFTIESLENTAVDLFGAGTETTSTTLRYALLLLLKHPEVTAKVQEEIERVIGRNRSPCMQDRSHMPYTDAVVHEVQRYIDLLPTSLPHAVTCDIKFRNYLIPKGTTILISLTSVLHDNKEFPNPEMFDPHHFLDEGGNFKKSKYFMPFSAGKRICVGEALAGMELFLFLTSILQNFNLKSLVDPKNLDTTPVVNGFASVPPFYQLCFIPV
# Chain of Cytochrome P450 2D6 (P10635 whole entry): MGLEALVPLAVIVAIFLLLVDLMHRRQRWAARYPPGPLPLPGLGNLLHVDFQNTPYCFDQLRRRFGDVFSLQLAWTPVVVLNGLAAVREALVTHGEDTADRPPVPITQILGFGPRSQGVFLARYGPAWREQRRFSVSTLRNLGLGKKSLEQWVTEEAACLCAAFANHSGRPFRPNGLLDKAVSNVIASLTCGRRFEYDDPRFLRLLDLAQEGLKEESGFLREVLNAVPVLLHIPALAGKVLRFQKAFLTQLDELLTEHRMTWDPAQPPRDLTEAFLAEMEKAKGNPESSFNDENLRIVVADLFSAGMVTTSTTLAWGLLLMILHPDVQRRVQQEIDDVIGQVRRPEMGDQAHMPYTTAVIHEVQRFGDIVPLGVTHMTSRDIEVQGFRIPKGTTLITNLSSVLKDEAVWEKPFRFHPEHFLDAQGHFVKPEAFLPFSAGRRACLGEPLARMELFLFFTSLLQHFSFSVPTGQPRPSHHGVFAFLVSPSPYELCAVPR
# Chain of Glyceraldehyde-3-phosphate dehydrogenase (P04406 whole entry): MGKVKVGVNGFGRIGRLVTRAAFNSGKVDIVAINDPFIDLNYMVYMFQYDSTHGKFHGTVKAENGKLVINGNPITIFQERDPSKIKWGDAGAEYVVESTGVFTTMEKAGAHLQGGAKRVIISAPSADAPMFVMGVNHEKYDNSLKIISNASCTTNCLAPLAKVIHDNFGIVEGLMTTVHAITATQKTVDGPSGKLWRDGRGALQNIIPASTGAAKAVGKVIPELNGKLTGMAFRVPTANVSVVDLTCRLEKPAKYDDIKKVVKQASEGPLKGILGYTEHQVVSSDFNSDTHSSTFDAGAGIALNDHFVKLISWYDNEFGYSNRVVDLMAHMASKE
# Chain of Luciferin 4-monooxygenase (P08659 whole entry): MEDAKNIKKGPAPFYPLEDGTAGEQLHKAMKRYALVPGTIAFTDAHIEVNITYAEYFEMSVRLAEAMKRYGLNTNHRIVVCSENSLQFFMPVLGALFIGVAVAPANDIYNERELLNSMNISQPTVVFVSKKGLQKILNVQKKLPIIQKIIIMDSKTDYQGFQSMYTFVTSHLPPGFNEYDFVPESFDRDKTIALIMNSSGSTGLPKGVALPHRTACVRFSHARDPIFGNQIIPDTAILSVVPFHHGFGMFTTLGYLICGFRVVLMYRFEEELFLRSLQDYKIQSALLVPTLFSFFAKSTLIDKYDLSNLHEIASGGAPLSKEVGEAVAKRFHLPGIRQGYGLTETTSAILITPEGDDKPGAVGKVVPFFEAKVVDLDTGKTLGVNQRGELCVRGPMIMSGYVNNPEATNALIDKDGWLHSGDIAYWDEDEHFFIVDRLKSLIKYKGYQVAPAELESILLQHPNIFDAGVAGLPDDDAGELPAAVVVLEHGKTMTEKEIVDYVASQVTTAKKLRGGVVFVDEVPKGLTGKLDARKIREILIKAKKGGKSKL
compound,measurement,setting,value
CNCC[C@H](Oc1ccc(C(F)(F)F)cc1)c1ccccc1,AC50,[1],inactive
Cc1ccc2nc(C)c3c(c2c1)N(c1ccc(F)cc1)CC3,EC50,[2],3.76 µM (active)
same,AC50,[3],97.9 µM (active)
O=C(CN1CCCC1)Nc1ccc(Cl)cc1C(=O)c1ccccc1,EC50,[2],1.5 µM (active)
same,AC50,[4],16.1 µM (active)
COc1ccc(C(C(=O)NC2CCCCC2)N2CCC3(CC2)OCCO3)cc1 (stereo not drawn),AC50,[1],inconclusive
same,AC50,[5],0.316 µM (inconclusive)
Cc1cc(C(=O)COc2cccnc2[N+](=O)[O-])c(C)n1-c1ccccc1F,EC50,[6],0.791 µM (active)
same,EC50,[7],16.8 µM (active)
same,AC50,[8],2.61 µM (active)
same,EC50,[9],6.07 µM (active)
COc1ccc(-c2csc(NC(=O)CCn3cnc4ccccc4c3=O)n2)cc1OC,IC50,[10],27.9 µM (active)
N#CC1=C2SCC(O)(c3ccccc3)N2C(=O)CC1c1ccccc1 (stereo not drawn),EC50,[11],4.26 µM (active)
same,EC50,[12],3.01 µM (active)
same,EC50,[13],51.4 µM (active)
same,EC50,[14],3.28 µM (active)
Cc1nc2cc(NC(=O)c3ccc([N+](=O)[O-])s3)ccc2s1,EC50,[6],0.95 µM (active)
same,EC50,[7],4.17 µM (active)
same,IC50,[15],> 20 µM (inactive)
same,IC50,[16],> 20 µM (inactive)
same,IC50,[17],> 20 µM (inactive)
same,EC50,[18],3.16 µM (active)
same,EC50,[9],< 0.1 µM (active)
CN(C)C1(CNC(=O)CC(NC(=O)c2ccccc2Cl)c2ccccc2)CCCCC1 (stereo not drawn),EC50,[2],0.299 µM (active)
same,EC50,[19],0.668 µM (active)
O=C(CCc1nc(O)c2ccccc2n1)N1CCN(S(=O)(=O)c2ccccc2Br)CC1,IC50,[10],> 79 µM (inactive)
COc1ccc(N2CCN(S(=O)(=O)c3ccc4c(c3)CCCC4)CC2)c([N+](=O)[O-])c1,AC50,[1],inconclusive
Cc1ccsc1C(=O)C1CCCN(Cc2ccccc2O)C1 (stereo not drawn),EC50,[2],4.22 µM (active)
same,EC50,[20],> 260 µM (inactive)
Cc1cc(C)n(-c2nc(NCCN(C)C)c3c4c(sc3n2)COC(C)(C)C4)n1,AC50,[3],100 µM (inactive)
O=C1C(Cl)=C(N2CCN(c3ccccc3)CC2)C(=O)N1c1ccnc(Cl)c1,IC50,[21],> 50 µM (inconclusive)
COc1ccc(-c2cn3ccc(C)cc3n2)cc1,EC50,[22],1.13 µM (active)
same,EC50,[23],9.75 µM (active)
same,AC50,[8],2.62 µM (active)
O=C(CCCN1C(=O)c2cccc3cccc(c23)C1=O)N1CCN(c2ccccc2O)CC1,IC50,[10],9.95 µM (active)
CCOc1ccc2nc(NC(=O)CN3CCC(n4nnc5cc(F)ccc54)CC3)sc2c1,IC50,[10],> 79 µM (inactive)
Cc1ccc2nc(O)c3cc(C(=O)NCCN4CCN(C)CC4)sc3c2c1,AC50,[3],56.7 µM (active)
CCOC(=O)c1ccc(NC(=O)C(=O)NCc2ccco2)cc1,EC50,[11],> 150 µM (not active)
same,EC50,[12],> 150 µM (not active)
same,EC50,[13],> 150 µM (not active)
same,EC50,[14],> 150 µM (not active)
Cc1ccc(N2C(=O)C(Cl)=C(N3CCN(Cc4ccc5c(c4)OCO5)CC3)C2=O)cc1,IC50,[21],> 50 µM (inconclusive)
CCN(CC)c1nc2ccccc2c(N)c1-c1ccccc1,EC50,[2],2.66 µM (active)
CCOc1ccc2ccccc2c1CNCCc1ccc(S(N)(=O)=O)cc1,EC50,[2],4.73 µM (active)
O=C(CCCc1ccc(N(CCCl)CCCl)cc1)NCc1ccccc1,AC50,[8],2.74 µM (active)
N#CC1(NC(=O)COC(=O)Cn2[nH]c(=O)c3ccccc3c2=O)CCCCC1,IC50,[10],> 79 µM (inactive)
C[C@H](CO)N1C[C@H](C)[C@@H](CN(C)C(=O)[C@H](Cc2ccccc2)N(C)C)OCc2ccccc2-c2c(n(C)c3ccccc23)C1=O,AC50,[24],13.3 µM (active)
same,AC50,[25],1.6 µM (active)
FC(F)(F)c1cc(C(F)(F)F)c2ccc(N/N=C/c3cccc(Cl)c3)nc2n1,AC50,[1],inconclusive
same,AC50,[26],17.8 µM (inconclusive)
COc1cccc(C(=O)NNC2=CC(=O)CC(C)(C)C2)c1,AC50,[1],inconclusive
same,AC50,[5],12.6 µM (inconclusive)
same,AC50,[26],25.1 µM (inconclusive)
